Test results published in ChEMBL document CHEMBL3885881, “DrugMatrix”.

Species: Rattus norvegicus
Experiment: DrugMatrix - Regimen: Daily Repeat
Type: toxicity, organism-based, Sprague-Dawley
Design: regimen Daily Repeat, gender Male, age 6-8 weeks
Settings: in vivo, po, route oral GAVAGE, […]
[1] = 0 mg/kg, 72 h, tissue Blood, dose level Control, time 3 day
[2] = 0 mg/kg, 72 h, tissue Plasma, dose level Control, time 3 day
[3] = 0 mg/kg, 120 h, tissue Blood, dose level Control, time 5 day
[4] = 0 mg/kg, 120 h, tissue Plasma, dose level Control, time 5 day
[5] = 72 h, tissue Blood, dose 6.3 mg/Kg, dose level Low, time 3 day
[6] = 72 h, tissue Plasma, dose 6.3 mg/Kg, dose level Low, time 3 day
[7] = 120 h, tissue Blood, dose 6.3 mg/Kg, dose level Low, time 5 day
[8] = 120 h, tissue Plasma, dose 6.3 mg/Kg, dose level Low, time 5 day

## ZIRCONIUM(IV) CHLORIDE
[1]
  ABSOLUTE BASOPHIL: 0 CELLS/uL
  ABSOLUTE EOSINOPHIL: 13.67 CELLS/uL
  ABSOLUTE LYMPHOCYTE: 10069.5 CELLS/uL
  ABSOLUTE MONOCYTE: 50 CELLS/uL
  ABSOLUTE SEGMENTED NEUTROPHIL: 516.83 CELLS/uL
  BASOPHIL: 0%
  EOSINOPHIL: 0.17%
  ERYTHROCYTE COUNT: 5.44 x10E6/uL
  HEMATOCRIT: 33.88%
  HEMOGLOBIN: 13.23 G/DL
  LEUKOCYTE COUNT: 10.65 x10E3/uL
  LYMPHOCYTE: 94.67%
  MEAN CORPUSCULAR HEMOGLOBIN: 24.37 pg
  MEAN CORPUSCULAR HEMOGLOBIN CONCENTRATION: 39.05 G/DL
  MONOCYTE: 0.67%
  NEUTROPHIL: 4.5%
  NUCLEATED RED BLOOD CELLS: 0.33 /100WBC
  PLATELET COUNT: 414.5 x10E3/uL
[2]
  ALANINE AMINOTRANSFERASE: 72 u/L
  ALKALINE PHOSPHATASE: 375 u/L
  ASPARTATE AMINOTRANSFERASE: 87.5 u/L
  BLOOD UREA NITROGEN: 14 mg/dL
  CARBON DIOXIDE: 27.5 mmol/L
  CHLORIDE: 95.83 MEQ/L
  CHOLESTEROL: 68.5 mg/dL
  CREATINE PHOSPHOKINASE: 284.33 u/L
  CREATININE: 0.16 mg/dL
  LACTATE DEHYDROGENASE: 101.83 u/L
  PHOSPHORUS: 10.33 mg/dL
  POTASSIUM: 5.22 MEQ/L
  TOTAL BILIRUBIN: 0.13 mg/dL
  TOTAL PROTEIN: 5.43 G/DL
  URIC ACID: 0.8 mg/dL
[3]
  ABSOLUTE BASOPHIL: 0 CELLS/uL
  ABSOLUTE EOSINOPHIL: 20.67 CELLS/uL
  ABSOLUTE LYMPHOCYTE: 11518.33 CELLS/uL
  ABSOLUTE MONOCYTE: 47 CELLS/uL
  ABSOLUTE SEGMENTED NEUTROPHIL: 614 CELLS/uL
  BASOPHIL: 0%
  EOSINOPHIL: 0.17%
  ERYTHROCYTE COUNT: 5.61 x10E6/uL
  HEMATOCRIT: 34.25%
  LEUKOCYTE COUNT: 12.2 x10E3/uL
  LYMPHOCYTE: 94.33%
  MEAN CORPUSCULAR HEMOGLOBIN: 23.83 pg
  MEAN CORPUSCULAR HEMOGLOBIN CONCENTRATION: 39.08 G/DL
  MEAN CORPUSCULAR VOLUME: 61.03 fL
  MONOCYTE: 0.33%
  NEUTROPHIL: 5.17%
  NUCLEATED RED BLOOD CELLS: 0 /100WBC
  PLATELET COUNT: 941.83 x10E3/uL
[4]
  ALANINE AMINOTRANSFERASE: 68.83 u/L
  ALKALINE PHOSPHATASE: 492.67 u/L
  ASPARTATE AMINOTRANSFERASE: 83.33 u/L
  BLOOD UREA NITROGEN: 14 mg/dL
  CARBON DIOXIDE: 37 mmol/L
  CHLORIDE: 98.67 MEQ/L
  CHOLESTEROL: 56.5 mg/dL
  CREATINE PHOSPHOKINASE: 167.33 u/L
  CREATININE: 0.17 mg/dL
  GLUCOSE: 157.5 mg/dL
  LACTATE DEHYDROGENASE: 104.83 u/L
  LIPASE: 10 u/L
  PHOSPHORUS: 10.43 mg/dL
  POTASSIUM: 5.46 MEQ/L
  TOTAL BILIRUBIN: 0.17 mg/dL
  TOTAL PROTEIN: 5.72 G/DL
  URIC ACID: 0.85 mg/dL
[5]
  ABSOLUTE BASOPHIL: 0 CELLS/uL
  ABSOLUTE EOSINOPHIL: 0 CELLS/uL
  ABSOLUTE LYMPHOCYTE: 15285.67 CELLS/uL
  ABSOLUTE MONOCYTE: 331 CELLS/uL
  ABSOLUTE SEGMENTED NEUTROPHIL: 1716.67 CELLS/uL
  BASOPHIL: 0%
  EOSINOPHIL: 0%
  ERYTHROCYTE COUNT: 5.71 x10E6/uL
  HEMOGLOBIN: 13.97 G/DL
  LEUKOCYTE COUNT: 17.33 x10E3/uL
  LYMPHOCYTE: 88%
  MEAN CORPUSCULAR HEMOGLOBIN CONCENTRATION: 38.27 G/DL
  MONOCYTE: 2%
  NEUTROPHIL: 10%
  NUCLEATED RED BLOOD CELLS: 0 /100WBC
  PLATELET COUNT: 1101 x10E3/uL
[6]
  ALANINE AMINOTRANSFERASE: 74.67 u/L
  ALKALINE PHOSPHATASE: 510.33 u/L
  ASPARTATE AMINOTRANSFERASE: 87.33 u/L
  BLOOD UREA NITROGEN: 14.33 mg/dL
  CARBON DIOXIDE: 27 mmol/L
  CHOLESTEROL: 56.33 mg/dL
  CREATINE PHOSPHOKINASE: 244 u/L
  CREATININE: 0.15 mg/dL
  GLUCOSE: 186.67 mg/dL
  LACTATE DEHYDROGENASE: 186 u/L
  PHOSPHORUS: 12.53 mg/dL
  POTASSIUM: 5.75 MEQ/L
  TOTAL BILIRUBIN: 0.1 mg/dL
[7]
  ABSOLUTE BASOPHIL: 0 CELLS/uL
  ABSOLUTE EOSINOPHIL: 0 CELLS/uL
  ABSOLUTE LYMPHOCYTE: 13034.67 CELLS/uL
  ABSOLUTE MONOCYTE: 344.67 CELLS/uL
  ABSOLUTE SEGMENTED NEUTROPHIL: 1154 CELLS/uL
  BASOPHIL: 0%
  EOSINOPHIL: 0%
  ERYTHROCYTE COUNT: 6.21 x10E6/uL
  HEMATOCRIT: 38.6%
  HEMOGLOBIN: 14.47 G/DL
  LEUKOCYTE COUNT: 14.53 x10E3/uL
  MEAN CORPUSCULAR HEMOGLOBIN: 23.3 pg
  MEAN CORPUSCULAR HEMOGLOBIN CONCENTRATION: 37.47 G/DL
  NEUTROPHIL: 8%
  NUCLEATED RED BLOOD CELLS: 0 /100WBC
  PLATELET COUNT: 1100.67 x10E3/uL
[8]
  ALANINE AMINOTRANSFERASE: 68.67 u/L
  ALKALINE PHOSPHATASE: 472.33 u/L
  ASPARTATE AMINOTRANSFERASE: 84.33 u/L
  BLOOD UREA NITROGEN: 13.33 mg/dL
  CARBON DIOXIDE: 31.33 mmol/L
  CHOLESTEROL: 55.33 mg/dL
  CREATINE PHOSPHOKINASE: 232 u/L
  CREATININE: 0.14 mg/dL
  LACTATE DEHYDROGENASE: 112.67 u/L
  PHOSPHORUS: 11.63 mg/dL
  POTASSIUM: 6.33 MEQ/L
  TOTAL BILIRUBIN: 0.2 mg/dL
  TOTAL PROTEIN: 5.5 G/DL
